Data from patent US20250171392A1, “CRYSTALLIZATION OF 4-HYDROXYACETOPHENONE FROM ETHANOL AND ETHYL ACETATE” (SYMRISE AG, priority 2022, published 2025).

How the values were obtained:
[1] = Solubility testing (dissolution time) of purified 4-hydroxyacetophenone (0.5 wt.-%) in cold 1,2-pentanediol (3 wt.-%) and glycerin (5 wt.-%) in water; type: physicochemical; details: for Time needed until purified 4-HAP is fully dissolved: 0.5 wt.-% 4-HAP, 3 wt.-% 1,2-pentanediol, 5 wt.-% glycerin (99.5%), 91.50 wt.-% water, solvent at 17.5-18.5° C., stirred at 500 rpm at 20-21° C.
[2] = Solubility testing (dissolution time) of purified 4-hydroxyacetophenone (0.5 wt.-%) in cold water; type: physicochemical; details: for Time needed until purified 4-HAP is fully dissolved: 0.5 wt.-% 4-HAP, 99.50 wt.-% water, solvent at 17.5-18.5° C., stirred at 500 rpm at 20-21° C.
[3] = Solubility testing (dissolution time) of purified 4-hydroxyacetophenone (0.5 wt.-%) in cold 1,2-pentanediol (5 wt.-%) in water; type: physicochemical; details: for Time needed until purified 4-HAP is fully dissolved: 0.5 wt.-% 4-HAP, 5 wt.-% 1,2-pentanediol, 94.50 wt.-% water, solvent at 17.5-18.5° C., stirred at 500 rpm at 20-21° C.
Aspergillus brasiliensis = details: when used in cosmetics; Daily Chemical Industry: 2015, 45:269; cited from earlier work
Pseudomonas aeruginosa = details: when used in cosmetics; Daily Chemical Industry: 2015, 45:269; cited from earlier work

Compound | Time needed until purified 4-HAP is fully dissolved [1] | dissolution time in cold 1,2-pentanediol (3 wt.-%) and glycerin (5 wt.-%) in water (in words, compared with the other samples) [1] | Time needed until purified 4-HAP is fully dissolved [2] | dissolution time in cold water (in words, compared with the other samples) [2] | Time needed until purified 4-HAP is fully dissolved [3] | ability to kill Aspergillus brasiliensis (Aspergillus brasiliensis) | ability to restrain Pseudomonas aeruginosa (Pseudomonas aeruginosa) | dissolution time in cold 1,2-pentanediol (5 wt.-%) in water (in words, compared with the other samples) ([3]; cold 1,2-pentanediol (5 wt.-%) in water)
CC(=O)c1ccc(O)cc1 [Example 1b, 4-hydroxyacetophenone] | 19 min | by far the shortest dissolution time | 22 min | by far the shortest dissolution time |  |  |  | 
CC(=O)c1ccc(O)cc1 [Example 3, 4-hydroxyacetophenone] | 30 min |  | 35 min |  | 22 min |  |  | 
CC(=O)c1ccc(O)cc1 [Example 4, 4-hydroxyacetophenone] | 24 min |  | 41 min |  | 33 min |  |  | 
CC(=O)c1ccc(O)cc1 [Example 6, 4-hydroxyacetophenone] | 28 min |  |  |  | 35 min |  |  | 
CC(=O)c1ccc(O)cc1 [Example 10, 4-hydroxyacetophenone] | 42 min |  | 67 min |  |  |  |  | 
CC(=O)c1ccc(O)cc1 [Example 2, 4-hydroxyacetophenone] | 53 min |  | 115 min |  | 56 min |  |  | 
CC(=O)c1ccc(O)cc1 [Example 5, 4-hydroxyacetophenone] | 22 min |  | 35 min |  | 26 min |  |  | 
CC(=O)c1ccc(O)cc1 [Example 9, 4-hydroxyacetophenone] | 21 min |  | 29 min |  | 17 min |  |  | 
CC(=O)c1ccc(O)cc1 [Example 8, 4-hydroxyacetophenone] | 27 min |  | 44 min |  | 29 min |  |  | 
CC(=O)c1ccc(O)cc1 [Example 7, 4-hydroxyacetophenone] | 33 min |  | 51 min |  | 36 min |  |  | 
CC(=O)c1ccc(O)cc1 [4-hydroxyacetophenone] |  |  |  |  |  | great ability to kill | a certain ability to restrain | 
CC(=O)c1ccc(O)cc1 [Example 1a, 4-hydroxyacetophenone] | 15 min | by far the shortest dissolution time | 24 min | by far the shortest dissolution time | 12 min |  |  | by far the shortest dissolution time
